We go through 7 compounds from ChEMBL document CHEMBL5550090, “Synthesis and biological evaluation of 1H-pyrrolo[3,2-g]isoquinolines” (Bioorg Med Chem, 2024).

Experiment [1] has as its target T1, Serine/threonine-protein kinase haspin (Homo sapiens, UniProt Q8TF76).
T1 sequence (Q8TF76 whole entry): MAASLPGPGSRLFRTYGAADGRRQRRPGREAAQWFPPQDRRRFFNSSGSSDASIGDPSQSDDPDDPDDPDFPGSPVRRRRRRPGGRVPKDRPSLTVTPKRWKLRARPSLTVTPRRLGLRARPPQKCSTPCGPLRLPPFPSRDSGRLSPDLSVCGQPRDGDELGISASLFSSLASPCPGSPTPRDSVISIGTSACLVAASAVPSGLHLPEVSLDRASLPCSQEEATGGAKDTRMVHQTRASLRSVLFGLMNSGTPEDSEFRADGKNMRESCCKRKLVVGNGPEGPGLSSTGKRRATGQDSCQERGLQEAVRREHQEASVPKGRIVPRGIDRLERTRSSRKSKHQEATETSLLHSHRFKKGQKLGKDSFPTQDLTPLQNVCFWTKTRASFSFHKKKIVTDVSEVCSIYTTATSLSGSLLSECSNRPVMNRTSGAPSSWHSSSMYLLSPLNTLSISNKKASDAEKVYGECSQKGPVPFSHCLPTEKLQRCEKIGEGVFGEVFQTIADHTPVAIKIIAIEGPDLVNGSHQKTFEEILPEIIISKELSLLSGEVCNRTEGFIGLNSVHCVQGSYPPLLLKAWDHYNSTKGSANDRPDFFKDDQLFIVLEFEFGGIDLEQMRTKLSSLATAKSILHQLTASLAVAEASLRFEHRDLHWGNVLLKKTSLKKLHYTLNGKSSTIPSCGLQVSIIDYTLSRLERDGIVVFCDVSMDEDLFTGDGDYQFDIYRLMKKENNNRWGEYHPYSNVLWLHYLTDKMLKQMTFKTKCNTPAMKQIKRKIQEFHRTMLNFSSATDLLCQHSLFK
The experiment can be described thus: Inhibition of recombinant human Haspin kinase domain (470 to 798 residues) expressed in bacteria using histone H3 (1 to 21) peptide as substrate incubated for 30 mins in presence of ATP by ADP-Glo kinase assay.

The target in experiment [2] is Dual specificity protein kinase CLK1 (Mus musculus) (UniProt P22518). The experiment in a line: Inhibition of recombinant mouse CLK1 expressed in bacteria assessed as enzyme residual activity using GRSRSRSRSRSR as substrate at 1 uM incubated for 30 mins in presence of ATP by ADP-Glo kinase assay.
Sequence of Dual specificity protein kinase CLK1 (Mus musculus) (P22518 whole entry, looked up): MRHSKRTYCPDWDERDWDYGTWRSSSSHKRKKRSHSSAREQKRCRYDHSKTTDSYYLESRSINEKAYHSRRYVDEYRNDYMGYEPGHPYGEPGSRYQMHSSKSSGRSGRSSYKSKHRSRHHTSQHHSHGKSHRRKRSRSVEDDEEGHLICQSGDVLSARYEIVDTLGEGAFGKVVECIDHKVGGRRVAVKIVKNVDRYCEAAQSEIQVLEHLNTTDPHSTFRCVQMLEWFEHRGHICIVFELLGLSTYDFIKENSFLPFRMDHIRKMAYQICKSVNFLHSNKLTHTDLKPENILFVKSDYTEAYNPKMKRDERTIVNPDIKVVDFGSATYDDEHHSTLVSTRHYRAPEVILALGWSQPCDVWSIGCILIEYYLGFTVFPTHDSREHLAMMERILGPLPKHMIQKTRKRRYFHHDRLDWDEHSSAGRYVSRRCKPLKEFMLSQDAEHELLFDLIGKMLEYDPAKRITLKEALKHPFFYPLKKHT
Experiment [3] concerns the target Dual specificity protein kinase CLK1 (Mus musculus, UniProt P22518). The experiment in a line: Inhibition of recombinant mouse CLK1 expressed in bacteria using GRSRSRSRSRSR as substrate incubated for 30 mins in presence of ATP by ADP-Glo kinase assay.
Experiment [4] addresses Dual specificity tyrosine-phosphorylation-regulated kinase 1A (Rattus norvegicus) (UniProt Q63470). The experiment in a line: Inhibition of recombinant rat DYRK1A kinase domain (1 to 499 residues) expressed in bacteria assessed as enzyme residual activity using KKISGRLSPIMTEQ as substrate at 10 uM incubated for 30 mins in presence of ATP by ADP-Glo kinase assay.
The target is the same in experiment [5]. The experiment can be described thus: Inhibition of recombinant rat DYRK1A kinase domain (1 to 499 residues) expressed in bacteria assessed as enzyme residual activity using KKISGRLSPIMTEQ as substrate at 1 uM incubated for 30 mins in presence of ATP by ADP-Glo kinase assay.
Experiment [6] has as its target Dual specificity tyrosine-phosphorylation-regulated kinase 1A (Rattus norvegicus, UniProt Q63470). The experiment can be described thus: Inhibition of recombinant rat DYRK1A kinase domain (1 to 499 residues) expressed in bacteria using KKISGRLSPIMTEQ as substrate incubated for 30 mins in presence of ATP by ADP-Glo kinase assay.
The target of experiment [7] is T2, CDK9/cyclin T1 (Homo sapiens) (UniProt O60563+P50750). The experiment in a line: Inhibition of human recombinant CDK9/cyclin T expressed in baculovirus-infected Sf9 cells assessed as enzyme residual activity using YSPTSPSYSPTSPSYSPTSPSKKKK as substrate at 10 uM incubated for 30 mins in presence of ATP by ADP-Glo kinase assay.
The target in experiment [8] is T2, CDK9/cyclin T1 (Homo sapiens). The experiment can be described thus: Inhibition of human recombinant CDK9/cyclin T expressed in baculovirus-infected Sf9 cells assessed as enzyme residual activity using YSPTSPSYSPTSPSYSPTSPSKKKK as substrate at 1 uM incubated for 30 mins in presence of ATP by ADP-Glo kinase assay.
The next experiment addresses CDK9/cyclin T1 (Homo sapiens, UniProt P50750). The experiment in a line: Inhibition of human recombinant CDK9/cyclin T expressed in baculovirus-infected Sf9 cells using YSPTSPSYSPTSPSYSPTSPSKKKK as substrate incubated for 30 mins in presence of ATP by ADP-Glo kinase assay.
In experiment [9] the target is Glycogen synthase kinase-3 beta (Homo sapiens) (UniProt P49841). The experiment in a line: Inhibition of human recombinant GSK-3 beta expressed in baculovirus-infected Sf9 cells assessed as enzyme residual activity using YRRAAVPPSPSLSRHSSPHQSpEDEEE as substrate at 10 uM incubated for 30 mins in presence of ATP by ADP-Glo kinase assay.
Sequence of Glycogen synthase kinase-3 beta (Homo sapiens) (P49841 whole entry, looked up): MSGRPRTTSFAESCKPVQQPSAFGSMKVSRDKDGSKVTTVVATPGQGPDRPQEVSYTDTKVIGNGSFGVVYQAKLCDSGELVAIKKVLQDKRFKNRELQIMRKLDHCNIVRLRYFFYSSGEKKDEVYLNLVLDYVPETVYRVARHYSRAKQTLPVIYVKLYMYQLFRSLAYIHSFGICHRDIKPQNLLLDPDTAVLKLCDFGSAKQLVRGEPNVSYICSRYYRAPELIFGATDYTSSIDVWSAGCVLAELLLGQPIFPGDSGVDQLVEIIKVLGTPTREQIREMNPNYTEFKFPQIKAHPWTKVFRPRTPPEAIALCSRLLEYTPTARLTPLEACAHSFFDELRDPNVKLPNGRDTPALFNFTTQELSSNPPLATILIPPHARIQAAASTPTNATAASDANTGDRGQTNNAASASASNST
Experiment [10] has the same target. The experiment can be described thus: Inhibition of human recombinant GSK-3 beta expressed in baculovirus-infected Sf9 cells assessed as enzyme residual activity using YRRAAVPPSPSLSRHSSPHQSpEDEEE as substrate at 1 uM incubated for 30 mins in presence of ATP by ADP-Glo kinase assay.
For experiment [11], the target named is Casein kinase I isoform epsilon (Homo sapiens) (UniProt P49674). The experiment in a line: Inhibition of human recombinant CK1 epsilon expressed in baculovirus-infected Sf9 cells assessed as enzyme residual activity using RRKHAAIGSpAYSITA as substrate at 10 uM incubated for 30 mins in presence of ATP by ADP-Glo kinase assay.
Sequence of Casein kinase I isoform epsilon (Homo sapiens) (P49674 whole entry, looked up, canonical isoform): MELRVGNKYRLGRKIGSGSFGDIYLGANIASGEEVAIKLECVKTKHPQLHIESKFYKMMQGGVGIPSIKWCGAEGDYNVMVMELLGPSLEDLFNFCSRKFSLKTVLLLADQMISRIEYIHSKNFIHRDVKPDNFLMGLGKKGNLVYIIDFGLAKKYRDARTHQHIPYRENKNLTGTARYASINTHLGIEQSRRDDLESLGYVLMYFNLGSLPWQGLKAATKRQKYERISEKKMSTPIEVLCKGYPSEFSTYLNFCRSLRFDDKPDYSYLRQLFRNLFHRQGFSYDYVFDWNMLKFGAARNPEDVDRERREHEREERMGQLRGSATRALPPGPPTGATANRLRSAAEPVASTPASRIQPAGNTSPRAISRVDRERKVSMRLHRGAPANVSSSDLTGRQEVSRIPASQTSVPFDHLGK
Experiment [12] has the same target. The experiment in a line: Inhibition of human recombinant CK1 epsilon expressed in baculovirus-infected Sf9 cells assessed as enzyme residual activity using RRKHAAIGSpAYSITA as substrate at 1 uM incubated for 30 mins in presence of ATP by ADP-Glo kinase assay.
The target of experiment [13] is T3, Cyclin-dependent kinase 5/CDK5 activator 1 (Homo sapiens) (UniProt Q00535+Q15078). The experiment can be described thus: Inhibition of human recombinant CDK5/p25 expressed in bacteria assessed as enzyme residual activity using histone H1 as substrate at 10 uM incubated for 30 mins in presence of ATP by ADP-Glo kinase assay.
T3 sequence (Q00535 whole entry): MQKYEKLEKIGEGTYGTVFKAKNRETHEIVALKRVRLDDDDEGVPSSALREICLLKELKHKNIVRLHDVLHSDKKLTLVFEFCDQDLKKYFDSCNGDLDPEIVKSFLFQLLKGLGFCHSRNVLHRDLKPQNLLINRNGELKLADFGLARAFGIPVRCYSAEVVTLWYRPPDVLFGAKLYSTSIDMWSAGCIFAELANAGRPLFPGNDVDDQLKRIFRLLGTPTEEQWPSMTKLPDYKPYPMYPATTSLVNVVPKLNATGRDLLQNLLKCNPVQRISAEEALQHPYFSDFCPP
T3 sequence (Q15078 99-307 partner limits assumed): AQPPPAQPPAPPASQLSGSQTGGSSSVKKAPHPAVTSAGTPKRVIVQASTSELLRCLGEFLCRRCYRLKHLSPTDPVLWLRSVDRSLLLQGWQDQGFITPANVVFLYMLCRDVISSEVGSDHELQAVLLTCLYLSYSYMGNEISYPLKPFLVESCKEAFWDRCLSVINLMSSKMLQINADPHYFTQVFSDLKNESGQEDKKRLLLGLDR
Experiment [14] has as its target T3, Cyclin-dependent kinase 5/CDK5 activator 1 (Homo sapiens). The experiment in a line: Inhibition of human recombinant CDK5/p25 expressed in bacteria assessed as enzyme residual activity using histone H1 as substrate at 1 uM incubated for 30 mins in presence of ATP by ADP-Glo kinase assay.
Experiment [15] deals with T4, Serine/threonine-protein kinase pim-1 (Homo sapiens, UniProt P11309). The experiment in a line: Inhibition of human recombinant PIM-1 expressed in bacteria assessed as enzyme residual activity using histone H1 as substrate at 10 uM incubated for 30 mins in presence of ATP by ADP-Glo kinase assay.
Target sequence in this assay (P11309 whole entry, looked up): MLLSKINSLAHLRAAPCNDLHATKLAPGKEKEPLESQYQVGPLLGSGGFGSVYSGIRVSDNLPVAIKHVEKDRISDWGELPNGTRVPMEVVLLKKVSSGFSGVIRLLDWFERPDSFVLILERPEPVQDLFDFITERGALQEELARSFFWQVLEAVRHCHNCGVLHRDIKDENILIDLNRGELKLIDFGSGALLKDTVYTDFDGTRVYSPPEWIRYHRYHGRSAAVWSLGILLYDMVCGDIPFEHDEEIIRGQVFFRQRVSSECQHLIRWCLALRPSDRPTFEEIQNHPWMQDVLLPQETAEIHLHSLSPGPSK
Experiment [16] has as its target T4, Serine/threonine-protein kinase pim-1. The experiment can be described thus: Inhibition of human recombinant PIM-1 expressed in bacteria assessed as enzyme residual activity using histone H1 as substrate at 1 uM incubated for 30 mins in presence of ATP by ADP-Glo kinase assay.
Target sequence in this assay (P11309 whole entry, looked up): as above
Experiment [17] in a line: Selectivity index, ratio of IC50 for recombinant mouse CLK1 expressed in bacteria to IC50 for recombinant human Haspin kinase domain (470 to 798 residues) expressed in bacteria.
For experiment [18], the target named is Dual specificity protein kinase CLK1 (Mus musculus) (UniProt P22518). The experiment in a line: Inhibition of recombinant mouse CLK1 expressed in bacteria assessed as enzyme residual activity using GRSRSRSRSRSR as substrate at 10 uM incubated for 30 mins in presence of ATP by ADP-Glo kinase assay.
Experiment [19] concerns the target T4, Serine/threonine-protein kinase pim-1. The experiment in a line: Inhibition of human recombinant PIM-1 expressed in bacteria using histone H1 as substrate incubated for 30 mins in presence of ATP by ADP-Glo kinase assay.
Target sequence in this assay (P11309 whole entry): as the sequence (P11309 whole entry, looked up) above
The test system of another experiment is TERT-RPE1. The experiment in a line: cells. To be noted: Homo sapiens, RPE-1, 48 h.
For the next experiment, the system named is HBL-100. The experiment can be described thus: cells. To be noted: Homo sapiens, HBL-100, 48 h.
For the next experiment, the system named is HCT-116. The experiment can be described thus: cells. Particulars: Homo sapiens, HCT-116, 48 h.
For a further experiment, the system named is SH-SY5Y. The experiment can be described thus: cells. To be noted: Homo sapiens, 48 h.
The test system of a further experiment is U2OS. The experiment in a line: cells. Particulars: Homo sapiens, 48 h.

Each structure is given as a SMILES string.

Sequence of Dual specificity protein kinase CLK1 (P22518 whole entry, the tested form may be a part): as the sequence (P22518 whole entry, looked up) above
Sequence of CDK9/cyclin T1 (O60563 whole entry): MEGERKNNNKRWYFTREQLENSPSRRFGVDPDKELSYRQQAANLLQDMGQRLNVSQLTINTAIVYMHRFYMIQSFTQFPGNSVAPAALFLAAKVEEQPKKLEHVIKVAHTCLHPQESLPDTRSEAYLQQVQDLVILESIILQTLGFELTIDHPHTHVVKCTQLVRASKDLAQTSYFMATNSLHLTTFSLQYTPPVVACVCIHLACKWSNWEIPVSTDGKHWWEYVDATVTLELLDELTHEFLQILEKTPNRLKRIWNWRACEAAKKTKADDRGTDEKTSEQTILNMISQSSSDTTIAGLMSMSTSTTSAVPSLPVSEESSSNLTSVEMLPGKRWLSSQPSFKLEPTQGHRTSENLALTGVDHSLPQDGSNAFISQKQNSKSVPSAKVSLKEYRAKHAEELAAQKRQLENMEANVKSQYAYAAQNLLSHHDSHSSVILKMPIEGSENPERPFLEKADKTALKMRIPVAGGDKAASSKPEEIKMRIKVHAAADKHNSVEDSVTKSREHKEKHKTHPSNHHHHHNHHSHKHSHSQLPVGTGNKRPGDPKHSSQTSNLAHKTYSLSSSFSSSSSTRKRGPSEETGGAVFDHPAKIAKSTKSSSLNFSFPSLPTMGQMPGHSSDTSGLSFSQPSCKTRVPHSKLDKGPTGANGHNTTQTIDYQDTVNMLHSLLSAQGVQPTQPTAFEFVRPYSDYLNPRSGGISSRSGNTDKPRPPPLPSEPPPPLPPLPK
Sequence of CDK9/cyclin T1 (P50750 whole entry): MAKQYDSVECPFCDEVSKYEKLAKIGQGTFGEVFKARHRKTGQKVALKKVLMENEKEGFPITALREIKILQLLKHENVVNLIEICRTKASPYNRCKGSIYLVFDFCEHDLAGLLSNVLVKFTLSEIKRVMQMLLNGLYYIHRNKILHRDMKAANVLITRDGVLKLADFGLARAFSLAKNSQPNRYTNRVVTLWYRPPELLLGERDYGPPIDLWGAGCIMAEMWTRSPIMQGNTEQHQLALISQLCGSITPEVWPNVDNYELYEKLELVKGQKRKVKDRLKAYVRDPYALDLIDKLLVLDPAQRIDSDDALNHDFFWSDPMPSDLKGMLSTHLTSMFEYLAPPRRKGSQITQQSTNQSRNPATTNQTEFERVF
Description for HBL-100: Antiproliferative activity against human HBL-100 cells assessed as reduction in cell viability incubated for 48 hrs by MTS assay
Description for HCT-116: Antiproliferative activity against human HCT-116 cells assessed as reduction in cell viability incubated for 48 hrs by MTS assay
Description for SH-SY5Y: Antiproliferative activity against human SH-SY5Y cells assessed as reduction in cell viability incubated for 48 hrs by MTS assay
Description for TERT-RPE1: Cytotoxicity against human TERT-RPE1 cells assessed as reduction in cell viability incubated for 48 hrs by MTS assay
Description for U2OS: Antiproliferative activity against human U2OS cells assessed as reduction in cell viability incubated for 48 hrs by MTS assay

Consider `ON=Cc1c[nH]c2cc3cnccc3cc12`, for which the IC50 in [1] turned out to be 0.13 µM; in experiment [3], 0.139 µM; in experiment [6], 0.29 µM; on CDK9/cyclin T1 it was 0.222 µM. Further, the Activity in experiment [2] was 15%; in [4], 1%; in experiment [5] it was 9%; in experiment [7], 2%; in experiment [8], 13%; in [9], 27%. The Activity worked out at 80% in [10]; 46% in experiment [11]; 89% in experiment [12]; 32% in experiment [13]; 51% in [14]; 11% in experiment [15]. Moreover, the Activity in experiment [16] is 43%. Besides, in experiment [17], the Ratio IC50 is 1.1.

Turning to `CC(=O)c1c[nH]c2cc3cnccc3cc12`, the IC50 amounted to 0.157 µM in [1], 0.265 µM in experiment [3] and 0.86 µM in experiment [6]. The Activity in experiment [18] was determined as 10%; in [2], 21%; in experiment [4], 0%; in [5], 25%; in experiment [7], 20%; in [8] it was 34%. The Activity in experiment [9] turned out to be 27%; in experiment [10], 69%; in experiment [11] it was 62%; in experiment [12] it was 98%; in experiment [13], 13%; in experiment [14], 31%. Moreover, the Activity was 27% in experiment [15] and 80% in [16]. Further, in experiment [17], the Ratio IC50 was 1.7.

`Cn1ccc2cc3ccncc3cc21`: in [1], the IC50 was roughly 1 µM. Further, the Activity in experiment [18] was determined as 58%; in experiment [2], 92%; in [4] it was 29%; in [5], 67%; in experiment [7] it was 60%; in [8], 89%. The Activity in experiment [9] is 83%; in experiment [10] it was 100%; in experiment [11], 85%; in experiment [12], 92%; in experiment [13], 38%; in experiment [14], 53%. Moreover, the Activity in experiment [15] was 35%; in experiment [16] it was 67%.

With `Ic1c[nH]c2cc3cnccc3cc12`, the IC50 was 0.114 µM in [1], 0.564 µM in experiment [6] and 0.675 µM in [19]. In addition, the Activity in experiment [18] is 27%; in experiment [2], 69%; in experiment [4], 16%; in experiment [5] it was 50%; in experiment [7] it was 35%; in experiment [8], 62%. The Activity in experiment [9] came to 74%; in [10], 77%; in [11] it was 27%; in [12], 69%; in experiment [13] it was 100%; in [15], 23%. For the same compound, in [16], the Activity turned out to be 50%. Also, the EC50 in the experiment with TERT-RPE1, in the experiment with HBL-100, in the experiment with HCT-116, with SH-SY5Y and with U2OS was greater than 50 µM throughout.

Regarding `c1ccc(-c2c[nH]c3cc4cnccc4cc23)cc1`, the IC50 in experiment [1] stood at 0.482 µM. For the same compound, the Activity in [18] worked out at 44%; in [2], 74%; in experiment [4], 19%; in [5], 53%; in experiment [7], 63%; in experiment [8] it was 83%. The Activity in experiment [9] turned out to be 77%; in experiment [10], 66%; in experiment [11] it was 88%; in experiment [12], 100%; in experiment [13], 73%; in [14], 97%. The Activity in experiment [15] came to 18%; in experiment [16], 53%.

`c1cc2cc3c(-c4cncnc4)c[nH]c3cc2cn1`: the IC50 in [1] came to 0.249 µM. The Activity in experiment [18] worked out at 14%; in [2] it was 54%; in experiment [4] it was 20%; in experiment [5], 51%; in experiment [7] it was 43%; in experiment [8], 79%. Further, the Activity stood at 59% in [9]; 68% in [10]; 43% in experiment [11]; 81% in experiment [12]; 72% in experiment [13]; 100% in experiment [14]. The Activity in experiment [15] worked out at 33%; in [16], 63%.

On to `Brc1c[nH]c2cc3cnccc3cc12`, for which the IC50 in experiment [1] is 0.15 µM; in experiment [6], 0.916 µM; at CDK9/cyclin T1 it was 0.999 µM; in experiment [19], 0.804 µM. The Activity in experiment [18] was 32%; in experiment [2], 72%; in [4], 11%; in experiment [5], 36%; in experiment [7], 27%; in [8], 39%. In addition, the Activity was 62% in [9]; 89% in experiment [10]; 77% in experiment [11]; 100% in experiment [12]; 48% in experiment [13]; 100% in experiment [14]. For the same compound, the Activity in [15] came out at 24%; in [16], 48%. The EC50 in the experiment with TERT-RPE1, in the experiment with HBL-100, in the experiment with HCT-116, in the experiment with SH-SY5Y and with U2OS was greater than 50 µM each time.
